We go through one compound from patent US11459586B2, “Methods for increasing efficiency of nuclease-mediated gene editing in stem cells” (President and Fellows of Harvard College, priority 2016, dated 2022).

Peptide text beside a SMILES is read from it. * marks the point of attachment. Cbz = O=C(OCc1ccccc1)*; CH2F = FC*

For one experiment, the system named is human iPSC. In kind it is cell-based. As to the method: FIGS. 10A-F. Effect of Caspase and p38 MAPK inhibitors on survival and gene targeting of human iPSC. FIG. 10A and FIG. 10B. Mouse Thy1 gene targeting scheme. Human iPSC were nucleofected with the mThy1 targeting vector, Cas9 nuclease, and Thy1 sgRNA expressing plasmid or pUC19 empty vector. Nucleofected cells were evenly divided and plated onto plain media (mTeSR1+10 μM Y-27632 ROCK inhibitor), or media supplemented with the indicated chemical inhibitor. For specific caspase inhibitors, the principal caspase they target is noted in parentheses. […] FIG. 10C. Two days after nucleofection, viable cells were counted. Error bars indicate s.e.m. of technical duplicates. Lines mark the count levels for nucleofected cells in plain media with or without sgRNA. FIG. 10D. Five days after transfection, cells were analyzed by flow cytometry for mThy1 and hThy1 expression. The percent of mThy1^+hThy1^− (bottom of each bar) and mThy1^+hThy1^+ (top of each bar) cells of live single cells is indicated. Lines mark the levels for cells in plain media. […] FIG. 10E. FACS plots of human iPSC transfected with the mThy1 targeting vector, Cas9 nuclease, and Thy1 Left and Right sgRNAs. Cells were subsequently cultured for 5 days in plain media±50 μM zVAD and ±10 μM SB203580. FIG. 10F. Human iPSC cultures were single cell FACS sorted into 96-well tissue culture plates containing a MEF feeder layer and hES media supplemented with SMC4 inhibitors±50 μM zVAD for eight days. Ten days after sorting, the number of surviving iPSC colonies was counted (from 190 cells sorted). PGP1 hiPSC lines created using retroviral vectors or non-integrating methods were both tested.
Pluripotency of iPSC cultures was verified by flow cytometry staining using anti-human Tra-1/60 PE (TRA-1-60, BD) and anti-human Oct3/4 eFluor 660 (EM92, eBioscience) with the fixation buffer sold under the trademark BD CYTOFIX™ and permeabilization buffer sold under the trademark PHOSFLOW™ Perm/Wash buffers. Human g-band karyotype analysis was done by Cell Line Genetics. Viable cell counts were measured with the cell analyzer sold under the trademark MUSE® Count & Viability Assay kit (EMD Millipore). Anti-human HLA-A2 APC (BB7.2) and anti-human HLA-BC PE (B1.23.2) were purchased from eBioscience. Human iPSC cultures were treated with 50 ng/ml recombinant interferon gamma (eBioscience) for 2 days prior to HLA staining.
Plasmids were purified using the plasmid DNA purification kit sold under the trademark Qiagen ENDOFREE® Plasmid Maxi kit and nucleofected into iPSC cells using the Lonza 4D-Nucleofector X unit (Buffer P3, Program CB-150). For each 20 μl nucleofection reaction, 0.2-0.5×106 iPSC were transfected with up to 4 μg of plasmid DNA. Post-nucleofection, iPSC were plated onto solubilized basement membrane matrix secreted by Engelbreth-Holm-Swarm (EHS) mouse sarcoma cells sold under the trademark […]®-coated wells containing feeder-free cell culture medium sold under the trademark MTESR1™ media with 10 μM Y-27632 plus other chemical inhibitors when noted. Later experiments included 50 μM zVAD-fmk (Bachem) for 1 day and 10 μM SB203580 (Biovision) for 4-5 days post transfection (see FIGS. 5, 6, 11, and 12). For FIG. 6 (ssODN transfection), 200 ng/ml recombinant B 18R (eBioscience), was also added to the culture for 5 days post transfection.
The following inhibitors were added to the hiPSC culture at the concentrations and time periods indicated in the Examples below. • 1. p53 or Bax inhibitors: cyclic pifithrin α (StemCell Technologies); pifithrin (Tocris); peptide V5, peptide control, iMAC1 and iMAC2 (EMD Millipore); N-acetyl cysteine and 4-hydroxy TEMPO (TEMPOL) (Sigma). • 2.

Experiment [1] relates to human iPSC containing a doxycycline-inducible Cas9 nuclease. Nature of the experiment: Cas9 nuclease toxicity in doxycycline-inducible Cas9 hiPSC (decline of CFP+EGFP+ cells). In kind it is cell-based. Particulars: zVAD added. The text has this:
FIGS. 1A-C. Cas9 nuclease toxicity in human iPSC only occurs with sgRNAs that target the human genome. FIG. 1A. A human iPSC line containing a doxycycline-inducible Cas9 nuclease was infected with lentivirus that constitutively expresses CFP together with an sgRNA. Three days after infection, each culture was divided into several wells and treated with the indicated concentrations of doxycycline for up to 14 days. FIG. 1B. At the indicated time points, the percent of CFP^+ of live single cells was determined by flow cytometry. […] FIG. 1C. 14 days after doxycycline induction, iPSC infected with the Thy1 sgRNA were stained for expression of the Thy1 surface marker and analyzed by flow cytometry. The percent of Thy1-negative edited cells gated on the CFP^+ infected cells is shown for varying concentrations of doxycycline. Results are representative of three independent experiments.
FIGS. 2A-B. Nuclease-mediated toxicity in human iPSC can be rescued by overexpression of dominant negative p53 or anti-apoptotic Bcl-2 family members. FIG. 2A. […] At the indicated time points, the percent of CFP EGFP^+ iPSC was determined by flow cytometry. […]
FIG. 13. […] At the indicated time points, the percent of CFP^+EGFP^+ iPSC was determined by flow cytometry. […]

As for `CC(NC(=O)C(NC(=O)OCc1ccccc1)C(C)C)C(=O)NC(CC(=O)O)C(=O)CF` (stereo not drawn) [zVAD] (Cbz-Val-Ala-Asp-CH2F; configuration not given here), in the experiment with human iPSC (lower concentration, 25 μM), the anoikis rescue entry was “did not show as much anoikis rescue”. Also, the “rescue of hiPSC from cell death (anoikis) after nucleofection” value in the experiment with human iPSC (viable cells two days after nucleofection, sgRNA plasmid or pUC19 control) is “rescued cells transfected with an sgRNA, and also those transfected with the pUC19 control”. The “doxycycline-induced Cas9 nuclease toxicity” value in experiment [1] is given as “did not affect”.
